Compound in this test: Nc1nc2c(ncn2[C@@H]2O[C@H](COP(=O)(O)OP(=O)(O)OP(=O)(O)O)[C@@H](O)[C@H]2O)c(=O)[nH]1 [guanosine triphosphate]
Nature of the test: pEC50 of GTP-induced change in protein thermal stability (2D-TPP). As to the method: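 2D thermal proteome profiling in Jurkat crude lysate. Lysate was treated 10 min at room temperature with Na-GTP (0, 0.001, 0.01, 0.1, 0.5 mM), heated to 12 temperatures (42-63.9 °C) for 3 min, and soluble protein was quantified by TMT10 LC-MS/MS. pEC50 is the median over replicates of dose-response fits (FDR-controlled hits).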

Sequence of UniProt Q7L4I2 (Q7L4I2 whole entry): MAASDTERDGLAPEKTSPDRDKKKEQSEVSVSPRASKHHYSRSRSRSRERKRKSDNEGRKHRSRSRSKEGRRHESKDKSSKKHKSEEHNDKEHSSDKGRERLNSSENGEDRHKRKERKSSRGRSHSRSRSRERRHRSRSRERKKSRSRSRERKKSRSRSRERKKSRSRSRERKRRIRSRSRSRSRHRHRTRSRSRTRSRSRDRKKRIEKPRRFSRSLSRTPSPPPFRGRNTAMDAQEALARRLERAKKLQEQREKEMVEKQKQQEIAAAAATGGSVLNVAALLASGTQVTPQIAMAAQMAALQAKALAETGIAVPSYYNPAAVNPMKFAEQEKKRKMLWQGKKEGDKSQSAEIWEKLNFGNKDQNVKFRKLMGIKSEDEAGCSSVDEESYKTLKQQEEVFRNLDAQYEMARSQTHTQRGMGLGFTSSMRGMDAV
Sequence of UniProt Q13243 (Q13243 whole entry): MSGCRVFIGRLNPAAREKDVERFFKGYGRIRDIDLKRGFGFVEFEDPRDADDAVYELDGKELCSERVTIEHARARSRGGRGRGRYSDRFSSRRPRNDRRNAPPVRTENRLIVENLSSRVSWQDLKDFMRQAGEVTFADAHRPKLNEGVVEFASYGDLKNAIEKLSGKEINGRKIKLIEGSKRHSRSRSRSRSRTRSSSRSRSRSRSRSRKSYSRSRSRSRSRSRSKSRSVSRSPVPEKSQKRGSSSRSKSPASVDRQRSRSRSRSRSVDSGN
Sequence of UniProt Q9NP72 (Q9NP72 whole entry): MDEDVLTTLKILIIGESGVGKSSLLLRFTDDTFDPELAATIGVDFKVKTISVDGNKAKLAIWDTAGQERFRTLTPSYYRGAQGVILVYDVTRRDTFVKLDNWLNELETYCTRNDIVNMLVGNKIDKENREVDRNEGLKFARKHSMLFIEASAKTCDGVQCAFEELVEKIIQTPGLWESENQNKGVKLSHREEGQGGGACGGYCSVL
Sequence of UniProt Q9ULC3 (Q9ULC3 whole entry): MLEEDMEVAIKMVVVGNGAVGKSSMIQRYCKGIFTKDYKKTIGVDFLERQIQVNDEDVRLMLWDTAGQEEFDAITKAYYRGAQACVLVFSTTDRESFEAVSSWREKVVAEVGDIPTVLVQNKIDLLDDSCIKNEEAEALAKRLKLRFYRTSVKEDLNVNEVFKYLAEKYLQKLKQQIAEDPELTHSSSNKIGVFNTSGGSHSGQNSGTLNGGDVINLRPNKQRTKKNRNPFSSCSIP
Sequence of UniProt P60953 (P60953 whole entry, looked up): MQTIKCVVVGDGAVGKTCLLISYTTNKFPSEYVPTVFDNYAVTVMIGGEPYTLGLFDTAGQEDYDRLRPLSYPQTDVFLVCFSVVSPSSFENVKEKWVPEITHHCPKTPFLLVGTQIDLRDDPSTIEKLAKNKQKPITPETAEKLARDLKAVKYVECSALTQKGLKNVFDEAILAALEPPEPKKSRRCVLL
Sequence of UniProt Q03518 (Q03518 whole entry): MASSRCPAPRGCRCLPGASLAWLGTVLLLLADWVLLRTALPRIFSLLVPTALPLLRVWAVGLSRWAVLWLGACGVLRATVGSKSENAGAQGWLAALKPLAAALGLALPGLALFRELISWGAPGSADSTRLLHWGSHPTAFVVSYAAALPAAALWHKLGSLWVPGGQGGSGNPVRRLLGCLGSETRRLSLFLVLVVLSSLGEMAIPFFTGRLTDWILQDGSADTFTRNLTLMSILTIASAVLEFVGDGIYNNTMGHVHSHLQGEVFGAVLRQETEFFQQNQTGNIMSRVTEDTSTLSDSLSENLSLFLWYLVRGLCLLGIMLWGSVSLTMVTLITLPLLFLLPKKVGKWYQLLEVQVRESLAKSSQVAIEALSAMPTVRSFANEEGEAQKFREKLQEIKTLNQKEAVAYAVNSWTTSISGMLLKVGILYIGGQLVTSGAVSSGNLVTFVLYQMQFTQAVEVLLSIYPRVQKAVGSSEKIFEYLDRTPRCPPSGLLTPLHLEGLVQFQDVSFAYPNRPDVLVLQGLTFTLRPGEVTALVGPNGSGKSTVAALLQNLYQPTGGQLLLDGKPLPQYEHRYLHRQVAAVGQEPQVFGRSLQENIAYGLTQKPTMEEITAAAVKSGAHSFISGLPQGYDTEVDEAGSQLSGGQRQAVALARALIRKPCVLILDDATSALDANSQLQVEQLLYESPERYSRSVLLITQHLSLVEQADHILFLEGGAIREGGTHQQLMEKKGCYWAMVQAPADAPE
Sequence of UniProt Q8IVH4 (Q8IVH4 whole entry): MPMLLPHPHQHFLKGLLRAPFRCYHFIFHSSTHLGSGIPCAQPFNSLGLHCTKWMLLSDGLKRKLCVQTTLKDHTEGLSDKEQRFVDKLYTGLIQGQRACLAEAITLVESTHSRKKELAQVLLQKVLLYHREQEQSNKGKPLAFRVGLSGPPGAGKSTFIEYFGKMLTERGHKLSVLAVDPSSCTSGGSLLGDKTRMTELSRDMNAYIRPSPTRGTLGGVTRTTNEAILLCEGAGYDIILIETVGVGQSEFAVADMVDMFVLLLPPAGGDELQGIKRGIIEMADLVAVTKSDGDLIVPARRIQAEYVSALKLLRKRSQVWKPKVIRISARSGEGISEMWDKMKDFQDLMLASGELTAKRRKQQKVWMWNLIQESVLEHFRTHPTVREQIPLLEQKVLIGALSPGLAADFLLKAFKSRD
Sequence of UniProt P35249 (P35249 whole entry): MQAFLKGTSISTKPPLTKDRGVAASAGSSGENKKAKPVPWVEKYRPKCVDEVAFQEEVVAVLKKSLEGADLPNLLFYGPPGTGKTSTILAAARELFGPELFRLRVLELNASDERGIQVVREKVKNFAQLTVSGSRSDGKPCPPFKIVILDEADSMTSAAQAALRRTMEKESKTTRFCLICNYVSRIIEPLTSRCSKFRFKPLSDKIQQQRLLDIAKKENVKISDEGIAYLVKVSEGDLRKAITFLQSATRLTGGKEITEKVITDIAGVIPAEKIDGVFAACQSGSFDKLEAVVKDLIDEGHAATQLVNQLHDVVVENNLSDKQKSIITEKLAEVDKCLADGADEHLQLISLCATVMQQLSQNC
Sequence of UniProt O95747 (O95747 whole entry, looked up): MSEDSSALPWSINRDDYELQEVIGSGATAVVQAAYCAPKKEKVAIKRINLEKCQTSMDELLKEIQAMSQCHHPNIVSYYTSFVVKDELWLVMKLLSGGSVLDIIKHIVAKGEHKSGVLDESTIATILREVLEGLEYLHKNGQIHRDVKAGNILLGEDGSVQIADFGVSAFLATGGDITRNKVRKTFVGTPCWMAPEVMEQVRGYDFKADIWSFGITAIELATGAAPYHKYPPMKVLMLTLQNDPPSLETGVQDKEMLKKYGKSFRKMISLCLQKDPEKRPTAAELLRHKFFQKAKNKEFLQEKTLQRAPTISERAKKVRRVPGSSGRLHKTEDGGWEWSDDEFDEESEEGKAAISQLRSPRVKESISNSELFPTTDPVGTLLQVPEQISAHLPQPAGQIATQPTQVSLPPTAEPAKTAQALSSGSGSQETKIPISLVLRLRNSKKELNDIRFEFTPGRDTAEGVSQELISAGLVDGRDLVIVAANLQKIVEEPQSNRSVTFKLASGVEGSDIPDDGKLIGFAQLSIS
Sequence of UniProt Q9Y450 (Q9Y450 whole entry): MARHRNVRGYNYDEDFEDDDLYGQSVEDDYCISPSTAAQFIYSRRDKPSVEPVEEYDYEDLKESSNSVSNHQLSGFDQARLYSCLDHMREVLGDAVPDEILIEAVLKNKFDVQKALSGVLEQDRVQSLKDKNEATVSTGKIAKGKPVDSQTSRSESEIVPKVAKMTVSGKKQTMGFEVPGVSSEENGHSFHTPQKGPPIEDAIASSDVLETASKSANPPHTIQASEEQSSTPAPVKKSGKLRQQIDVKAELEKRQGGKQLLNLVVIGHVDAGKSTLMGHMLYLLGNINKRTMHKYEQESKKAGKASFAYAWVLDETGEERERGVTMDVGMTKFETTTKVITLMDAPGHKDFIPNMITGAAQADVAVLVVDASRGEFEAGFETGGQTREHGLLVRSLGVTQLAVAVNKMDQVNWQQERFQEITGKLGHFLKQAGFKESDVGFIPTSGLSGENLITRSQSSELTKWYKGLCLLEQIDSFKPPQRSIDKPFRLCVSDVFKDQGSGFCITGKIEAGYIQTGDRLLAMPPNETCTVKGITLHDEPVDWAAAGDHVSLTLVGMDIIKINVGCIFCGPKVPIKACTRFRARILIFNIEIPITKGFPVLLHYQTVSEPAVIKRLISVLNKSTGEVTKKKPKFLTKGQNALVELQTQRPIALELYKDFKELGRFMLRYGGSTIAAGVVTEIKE
Sequence of UniProt O75367 (O75367 whole entry): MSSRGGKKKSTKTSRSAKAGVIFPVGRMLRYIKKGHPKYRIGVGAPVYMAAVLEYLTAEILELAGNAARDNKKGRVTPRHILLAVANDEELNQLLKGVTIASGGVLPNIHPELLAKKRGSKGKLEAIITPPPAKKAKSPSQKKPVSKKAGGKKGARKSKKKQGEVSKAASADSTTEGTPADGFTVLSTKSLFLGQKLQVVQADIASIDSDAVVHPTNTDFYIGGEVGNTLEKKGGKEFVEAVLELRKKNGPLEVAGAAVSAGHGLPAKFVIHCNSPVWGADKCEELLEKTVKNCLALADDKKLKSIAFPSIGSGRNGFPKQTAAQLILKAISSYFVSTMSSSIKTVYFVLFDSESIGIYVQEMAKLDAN
Sequence of UniProt Q9NZ01 (Q9NZ01 whole entry): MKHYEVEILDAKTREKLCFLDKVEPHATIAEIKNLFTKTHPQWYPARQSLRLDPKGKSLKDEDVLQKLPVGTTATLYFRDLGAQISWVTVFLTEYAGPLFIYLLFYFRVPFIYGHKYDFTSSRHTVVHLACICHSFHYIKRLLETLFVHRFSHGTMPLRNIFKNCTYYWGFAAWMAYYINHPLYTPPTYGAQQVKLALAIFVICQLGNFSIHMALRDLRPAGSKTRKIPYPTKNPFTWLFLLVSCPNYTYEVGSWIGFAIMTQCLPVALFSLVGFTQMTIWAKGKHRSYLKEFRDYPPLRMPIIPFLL
Sequence of UniProt P84103 (P84103 whole entry): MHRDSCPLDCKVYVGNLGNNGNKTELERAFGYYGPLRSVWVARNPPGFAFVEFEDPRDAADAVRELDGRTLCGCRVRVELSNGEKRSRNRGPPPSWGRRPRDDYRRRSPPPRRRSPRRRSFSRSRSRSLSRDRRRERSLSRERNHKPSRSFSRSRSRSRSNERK

For the target “GPN1 (effect direction: stabilized) (UniProt Q9HCN4)”, the pEC50 (as a rule, the EC50 on a negative log10 scale, so that one unit is a factor of ten) was determined as 4.95.

Turning to “GSPT2 (effect direction: stabilized) (UniProt Q8IYD1)”, the pEC50 is 4.27.

For “H2AFX (effect direction: stabilized) (UniProt P16104)”, the pEC50 was found to be 3.49.

Consider “H2AFY (effect direction: stabilized) (UniProt O75367)”, for which the pEC50 is 3.67.

“HBS1L (effect direction: stabilized) (UniProt Q9Y450)”: the pEC50 was found to be 4.21.

For the target “HSPD1 (effect direction: destabilized) (UniProt P10809)”, the pEC50 turned out to be 4.2.

For the target “KRAS (effect direction: stabilized) (UniProt P01116)”, the pEC50 turned out to be 4.32.

“LSG1 (effect direction: stabilized) (UniProt Q9H089)”: the negative-log EC50 (pEC50) amounted to 3.88.

As for “MFN1 (effect direction: stabilized) (UniProt Q8IWA4)”, the negative-log EC50 (pEC50) was 3.96.

In the case of “MMAA (effect direction: stabilized) (UniProt Q8IVH4)”, the pEC50 was 4.08.

For the target “NKIRAS2 (effect direction: stabilized) (UniProt Q9NYR9)”, the pEC50 came out at 4.17.

With “NRAS (effect direction: stabilized) (UniProt P01111)”, the pEC50 stood at 4.01.

As to “NUBPL (effect direction: stabilized) (UniProt Q8TB37)”, the pEC50 stood at 3.93.

Consider “OPA1 (effect direction: stabilized) (UniProt O60313)”, for which the pEC50 came to 3.71.

“PANK3 (effect direction: stabilized) (UniProt Q9H999)”: the pEC50 is 3.41.

For “PANK4 (effect direction: stabilized) (UniProt Q9NVE7)”, the pEC50 was determined as 3.55.

In the case of “PCK2 (effect direction: stabilized) (UniProt Q16822)”, the pEC50 stood at 3.79.

Turning to “POFUT1 (effect direction: stabilized) (UniProt Q9H488)”, the pEC50 amounted to 3.78.

In the case of “RAB1B (effect direction: stabilized) (UniProt Q9H0U4)”, the pEC50 amounted to 3.88.

On to “RAB3A (effect direction: stabilized) (UniProt P20336)”, for which the negative logarithm of the EC50 (pEC50) was 4.

As to “RAB3D (effect direction: stabilized) (UniProt O95716)”, the pEC50 is 3.85.

Take “RAB5A (effect direction: stabilized) (UniProt P20339)”: the pEC50 was 3.97.

Regarding “RAB11B (effect direction: stabilized) (UniProt Q15907)”, the pEC50 came to 4.23.

“RAB12 (effect direction: stabilized) (UniProt Q6IQ22)”: the pEC50 worked out at 3.93.

With “RAB18 (effect direction: stabilized) (UniProt Q9NP72)”, the pEC50 stood at 3.65.

Regarding “RAB23 (effect direction: stabilized) (UniProt Q9ULC3)”, the negative-log EC50 (pEC50) worked out at 4.02.

Take “RAB27A (effect direction: stabilized) (UniProt P51159)”: the pEC50 came to 3.92.

As to “RAB33B (effect direction: stabilized) (UniProt Q9H082)”, the pEC50 is 4.12.

As to “RAB37 (effect direction: stabilized) (UniProt Q96AX2)”, the pEC50 stood at 3.8.

In the case of “RAC2 (effect direction: stabilized) (UniProt P15153)”, the pEC50 turned out to be 3.98.

Consider “RALA (effect direction: stabilized) (UniProt P11233)”, for which the pEC50 was 4.33.

On to “RALB (effect direction: stabilized) (UniProt P11234)”, for which the pEC50 is 4.14.

Take “RAP2A (effect direction: stabilized) (UniProt P10114)”: the pEC50 stood at 4.47.

As for “RECQL (effect direction: destabilized) (UniProt P46063)”, the pEC50 came out at 3.84.

As for “RFC3 (effect direction: stabilized) (UniProt P40938)”, the pEC50 turned out to be 3.85.

For “RFC4 (effect direction: stabilized) (UniProt P35249)”, the pEC50 turned out to be 3.91.

Take “RFC5 (effect direction: stabilized) (UniProt P40937)”: the pEC50 was 3.8.

For “RNGTT (effect direction: stabilized) (UniProt O60942)”, the pEC50 worked out at 4.39.

Consider “RRAS (effect direction: stabilized) (UniProt P10301)”, for which the pEC50 was found to be 3.84.

As to “RSRC2 (effect direction: stabilized) (UniProt Q7L4I2)”, the pEC50 turned out to be 3.79.

For “SACS (effect direction: stabilized) (UniProt Q9NZJ4)”, the pEC50 turned out to be 3.82.

Turning to “SAFB2 (effect direction: destabilized) (UniProt Q14151)”, the pEC50 came to 3.34.

Regarding “SAFB (effect direction: destabilized) (UniProt Q15424)”, the pEC50 came to 4.81.

In the case of “SAR1A (effect direction: stabilized) (UniProt Q9NR31)”, the pEC50 came to 3.87.

With “SAR1B (effect direction: stabilized) (UniProt Q9Y6B6)”, the pEC50 amounted to 4.16.

Take “SRP54 (effect direction: stabilized) (UniProt P61011)”: the pEC50 worked out at 3.98.

For “SRP68 (effect direction: stabilized) (UniProt Q9UHB9)”, the pEC50 worked out at 4.12.

Regarding “SRP72 (effect direction: stabilized) (UniProt O76094)”, the pEC50 worked out at 4.01.

As for “TAP1 (effect direction: stabilized) (UniProt Q03518)”, the pEC50 was 3.74.

Take “TUBA1A (effect direction: stabilized) (UniProt Q71U36)”: the pEC50 is 3.4.

On to “TUBE1 (effect direction: stabilized) (UniProt Q9UJT0)”, for which the pEC50 is 4.31.

As for “TUFM (effect direction: stabilized) (UniProt P49411)”, the pEC50 is 4.41.

Take “UCK1 (effect direction: stabilized) (UniProt Q9HA47)”: the negative-log EC50 (pEC50) is < 3.3.

As for “UQCRC2 (effect direction: stabilized) (UniProt P22695)”, the pEC50 was found to be 4.3.

For “UniProt A3KMH1 (effect direction: stabilized)”, the pEC50 worked out at 3.98.

In the case of “UniProt O00506 (effect direction: stabilized)”, the pEC50 was determined as 3.86.

With “UniProt O14966 (effect direction: stabilized)”, the pEC50 is 4.27.

With “UniProt O75582 (effect direction: stabilized)”, the pEC50 is 4.16.

In the case of “UniProt O95747 (effect direction: stabilized)”, the pEC50 is 3.79.

Regarding “UniProt P08134 (effect direction: stabilized)”, the pEC50 came out at 4.43.

With “UniProt P48730 (effect direction: stabilized)”, the pEC50 was 3.86.

Consider “UniProt P51149 (effect direction: stabilized)”, for which the pEC50 was 3.9.

Take “UniProt P60953 (effect direction: stabilized)”: the pEC50 worked out at 3.59.

Take “UniProt P61020 (effect direction: stabilized)”: the pEC50 was found to be 4.67.

On to “UniProt P61221 (effect direction: stabilized)”, for which the pEC50 was found to be 4.18.

As to “UniProt P62330 (effect direction: stabilized)”, the pEC50 was determined as 3.98.

As for “UniProt P62805 (effect direction: stabilized)”, the pEC50 was found to be 3.69.

With “UniProt P62834 (effect direction: stabilized)”, the negative logarithm of the EC50 (pEC50) amounted to 4.38.

As to “UniProt P63000 (effect direction: stabilized)”, the pEC50 was determined as 3.84.

“UniProt P78527 (effect direction: stabilized)”: the pEC50 came out at 3.93.

Consider “UniProt P84085 (effect direction: stabilized)”, for which the pEC50 is 4.13.

As for “UniProt P84095 (effect direction: stabilized)”, the pEC50 turned out to be 3.83.

As for “UniProt P84103 (effect direction: stabilized)”, the pEC50 stood at 3.94.

For “UniProt Q5JTY5 (effect direction: stabilized)”, the negative-log EC50 (pEC50) was found to be 4.22.

For “UniProt Q9BSD7 (effect direction: stabilized)”, the pEC50 was 3.96.

“UniProt Q9NZ01 (effect direction: stabilized)”: the pEC50 came to 3.66.

For the target “UniProt Q9Y3L5 (effect direction: stabilized)”, the pEC50 was 3.83.

Regarding “UniProt Q86Y56 (effect direction: stabilized)”, the negative-log EC50 (pEC50) was 4.09.

“UniProt Q08170 (effect direction: stabilized)”: the pEC50 is 3.79.

As for “UniProt Q13243 (effect direction: stabilized)”, the pEC50 stood at 3.6.

Values taken from the supplement of paper PMC6411743.
